Laboratory results reported in ChEMBL document CHEMBL4184119, “Identification of 2-thioxoimidazolidin-4-one derivatives as novel noncovalent proteasome and immunoproteasome inhibitors” (Bioorg Med Chem Lett, 2018).
Active and inactive are the calls of the source. No cut-off for these calls is given here.

Legend:
[1] = molecular target: T1, Proteasome component C5 (Homo sapiens) (UniProt P20618); assay: Inhibition of 20s constitutive proteasome beta1 caspase-like activity in human erythrocytes using Z-Leu-Leu-Glu-AMC as substrate at 50 uM after 10 mins by fluorescence assay relative to control; type: cell-based
T1 sequence (whole entry): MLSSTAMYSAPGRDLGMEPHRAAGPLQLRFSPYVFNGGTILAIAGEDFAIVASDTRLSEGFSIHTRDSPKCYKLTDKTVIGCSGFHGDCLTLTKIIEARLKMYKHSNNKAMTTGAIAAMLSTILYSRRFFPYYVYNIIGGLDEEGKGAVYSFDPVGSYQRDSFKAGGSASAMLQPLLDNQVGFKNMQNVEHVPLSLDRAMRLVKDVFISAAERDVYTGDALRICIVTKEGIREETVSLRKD

[2] = molecular target: Proteasome Macropain subunit (Homo sapiens) (UniProt P49721); assay: Inhibition of 20s constitutive proteasome beta2 trypsin-like activity in human erythrocytes using Boc-Leu-Arg-Arg-AMC as substrate at 50 uM after 10 mins by fluorescence assay relative to control; type: cell-based
[3] = molecular target: Proteasome Macropain subunit (Homo sapiens) (UniProt P49721); assay: Inhibition of 20s immunoproteasome beta2 trypsin-like activity in human spleen using Boc-Leu-Arg-Arg-AMC as substrate at 50 uM after 10 mins by fluorescence assay relative to control
[4] = molecular target: T2, Proteasome Macropain subunit MB1 (Homo sapiens) (UniProt P28074); assay: Inhibition of 20s constitutive proteasome beta5 chymotrypsin-like activity in human erythrocytes using Suc-Leu-Leu-Val-Tyr-AMC as substrate at 50 uM after 10 mins by fluorescence assay relative to control; type: cell-based
T2 sequence (whole entry): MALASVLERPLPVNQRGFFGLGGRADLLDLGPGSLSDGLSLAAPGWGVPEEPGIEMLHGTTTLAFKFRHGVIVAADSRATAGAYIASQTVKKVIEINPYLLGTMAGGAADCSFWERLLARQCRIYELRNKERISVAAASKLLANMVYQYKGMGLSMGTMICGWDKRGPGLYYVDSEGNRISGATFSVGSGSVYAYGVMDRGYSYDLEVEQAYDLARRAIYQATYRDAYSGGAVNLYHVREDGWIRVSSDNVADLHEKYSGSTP

[5] = molecular target: T2, Proteasome Macropain subunit MB1 (Homo sapiens); assay: Inhibition of 20s immunoproteasome beta5 chymotrypsin-like activity in human spleen using Suc-Leu-Leu-Val-Tyr-AMC as substrate at 50 uM after 10 mins by fluorescence assay relative to control
[6] = Growth inhibition of human MM1R cells after 24 hrs by MTT assay; type: functional; details: MM.1R
[7] = molecular target: T3, Proteasome Macropain subunit MB1 (Homo sapiens, UniProt P28074); assay: Inhibition of 20s constitutive proteasome beta5 chymotrypsin-like activity in human erythrocytes using Suc-Leu-Leu-Val-Tyr-AMC as substrate after 10 mins by fluorescence assay
T3 sequence (P28074 whole entry): T2 sequence (whole entry)

[8] = molecular target: T2, Proteasome Macropain subunit MB1 (Homo sapiens); assay: Selectivity ratio of inhibitory concentration for 20s constitutive proteasome beta5 chymotrypsin-like activity in human erythrocytes to Ki for 20s immunoproteasome beta5 chymotrypsin-like activity in human spleen; type: cell-based
[9] = molecular target: T2, Proteasome Macropain subunit MB1 (Homo sapiens); assay: Reversible inhibition of 20s constitutive proteasome beta5 chymotrypsin-like activity in human erythrocytes using Suc-Leu-Leu-Val-Tyr-AMC as substrate at 50 uM preincubated for 30 mins followed by compound dilution measured after 30 mins by fluorescence assay; type: cell-based

Chain of Proteasome Macropain subunit (Homo sapiens) (P49721 whole entry): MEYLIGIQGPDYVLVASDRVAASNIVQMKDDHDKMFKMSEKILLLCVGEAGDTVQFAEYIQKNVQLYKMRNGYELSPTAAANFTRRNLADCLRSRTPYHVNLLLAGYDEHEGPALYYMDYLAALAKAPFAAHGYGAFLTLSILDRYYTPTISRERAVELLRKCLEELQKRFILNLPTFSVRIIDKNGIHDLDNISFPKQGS

Structure (SMILES)	inhibition [1]	inhibition [2]	inhibition [3]	inhibition [4]	inhibition [5]	Ki [7] [µM]	Ratio [8]	inhibition [9]	IC50 [6] [µM]
O=C1/C(=C/c2ccc(Oc3ccccc3)cc2)NC(=S)N1c1ccccc1	inactive	5%	53%	13%	58%				
CC(C)CC(NC(=O)[C@H](CC(C)C)NC(=O)OCc1ccccc1)C(=O)N[C@H](C=O)CC(C)C (single isomer, unassigned) [MG-132]									14.4
O=C1CNC(=S)N1c1ccccc1	32%	inactive	inactive	47%	53%				
COc1ccc(/C=C2\NC(=S)N(c3ccccc3)C2=O)cc1	56%	35%	29%	45%					19.4
O=C1/C(=C/c2ccc(Oc3ccccc3)cc2)NC(=S)N1c1cccc2ccccc12		57%		20%	56%				
O=C1CNC(=S)N1c1cccc2ccccc12	47%	38%	inactive	inactive	inactive				
CSc1ccc(/C=C2\NC(=S)N(c3ccccc3)C2=O)cc1	59%			28%	50%				
O=C1/C(=C/c2cccc(Oc3ccccc3)c2)NC(=S)N1c1ccccc1	inactive	inactive	32%	39%	56%				

Continued, in another order:

inhibition [1]	inhibition [2]	inhibition [3]	inhibition [4]	inhibition [5]	Ki [7] [µM]	Ratio [8]	inhibition [9]	Structure (SMILES)	IC50 [6] [µM]
54%	32%				23.6			COc1cc(/C=C2\NC(=S)N(c3ccccc3)C2=O)ccc1O	20.2
52%	36%	18%			17.9			COc1cccc(/C=C2\NC(=S)N(c3ccccc3)C2=O)c1	25.9
28%	37%	45%	45%			20		COc1ccc(/C=C2\NC(=S)N(c3ccccc3)C2=O)cc1O	40.7
58%	29%	50%			13.6	7	Active	COc1ccc(/C=C2\NC(=S)N(c3ccccc3)C2=O)cc1OC	36.7
